{
  "source": "patent US20090203010A1",
  "about": "“MSMB-gene based diagnosis, staging and prognosis of prostate cancer” (Katholieke Universiteit Leuven, K.U. Leuven R&D, priority 2008, published 2009)",
  "format_in_all_cases": "cell-based, Human",
  "key": {"[1]": {"test_system": "MSMB gene", "test": "Quantitative RT-PCR of the MSMB transcript level in PC-3 cells", "procedure": "(a) The relative amounts of EZH2 (left panel) and MSMB transcripts (right panel) in the indicated prostate cell lines were determined by quantitative RT-PCR with intron-spanning primers. Human prostate PC-3 cells (adenocarcinoma), LNCaP cells (carcinoma) and DU 145 cells (carcinoma) were cultured as monolayers in 50% Dulbecco's modified Eagle's medium (DMEM) and 50% Ham's F12, RPMI1640 and DMEM, respectively, supplemented with 10% fetal calf serum. PZ-HPV-7 cells, an immortalized cell line derived from normal human prostate cells, were cultured in keratinocyte-serum free medium supplemented with 5 ng/ml human recombinant epidermal growth factor and 0.05 mg/ml bovine pituitary extract. Total RNA was isolated using the Genelute Mammalian Total RNA Miniprep kit (Sigma, St. Louis, Mo., USA). A total of […] RNA was reverse-transcribed with oligo dT primer (Sigma) and the M-MulV reverse transcriptase (Fermentas GMBH, St. Leon-Rot, Germany). cDNA (1.5%) was analyzed by real-time PCR in triplicate using a Platinum SYBR Green qPCR SuperMix-UDG (Invitrogen, Paisly, UK) in a Rotorgene detection system (Corbett Research, Cambridge, UK) and normalized to the housekeeping gene hypoxanthine-guanine-phosphoribosyl-transferase (HPRT). […] The DNA was recovered with the Genelute PCR clean-up kit (Sigma) and analyzed by real-time PCR. […] The enrichment of DNA was calculated using the formula:fold enrichment=^2(CtlgG-CtAb), where Ct is the threshold cycle, IgG is the normal rabbit IgG and Ab is the specific antibody.\nFIG. 2 concerns how EZH2 is recruited to the MSMB gene and causes trimethylation of H3K27. […] (b) Immunoblotting (upper panel) and quantitative RT-PCR analysis (lower panel) of PC-3 cell lysates, obtained after transfection with either a control siRNA (Ctr), that is, a scrambled version of a siRNA duplex for the housekeeping gene PPP1R8 ([…] (SEQ ID NO:71), Invitrogen) or an EZH2 siRNA (KD; […] (SEQ ID NO:72), Dharmacon, Chicago, Ill., USA). […] SIPP1 served as a loading control for the immunoblotting and ACTIN was used as control for normalization in the quantitative RT-PCR. […]"}, "[2]": {"test_system": "CpG island in the promoter region of the MSMB gene", "test": "DNA bisulfite sequencing of the MSMB CpG island in PC-3 cells", "settings": "following addition of the DNA methyltransferase inhibitor", "procedure": "(a) PC-3 cells were treated for 48 hours with […] of the DNA methyltransferase inhibitor […]. Subsequently, the steady-state levels of the MSMB and EZH2 transcripts were determined by quantitative RT-PCR analysis with intron-spanning primers specific for the indicated genes. The data were expressed relative to the transcript level in the control condition. HPRT was used as a control for normalization. (b) A schematic representation of the MSMB gene on scale. The four exons are indicated by the black boxes and the two analyzed CpG regions by black stars. TSS, transcriptional start site. Methylated CG dinucleotides are denoted underneath by closed circles and unmethylated CGs by open circles. Genomic DNA of PC-3 cells or LNCaP cells was purified with the GenElute Mammalian Genomic DNA Miniprep kit of Sigma. Two microgram was digested overnight with BglII. The DNA was denatured with 0.3 M NaOH at […] for 30 minutes. Sodium bisulfite (3.3 M) and hydroquinone (0.5 mM) were added to the DNA and the mixture was incubated overnight at 55° C.\nThe DNA was purified with the PCR purification kit of Sigma, St Louis, Mo., USA. The DNA was desulfonated with […] for 15 minutes at 37° C. and precipitated by adding NH4Ac and ethanol. The pellet was air-dried and dissolved in 10 mM Tris and 1 mM ethylene-diaminete-traacetic acid at pH 8. […]"}, "[3]": {"test_system": "EZH2", "test": "Quantitative RT-PCR of the EZH2 transcript level in PC-3 cells", "procedure": "(§1) (a) The relative amounts of EZH2 (left panel) and MSMB transcripts (right panel) in the indicated prostate cell lines were determined by quantitative RT-PCR with intron-spanning primers. Human prostate PC-3 cells (adenocarcinoma), LNCaP cells (carcinoma) and DU 145 cells (carcinoma) were cultured as monolayers in 50% Dulbecco's modified Eagle's medium (DMEM) and 50% Ham's F12, RPMI1640 and DMEM, respectively, supplemented with 10% fetal calf serum. PZ-HPV-7 cells, an immortalized cell line derived from normal human prostate cells, were cultured in keratinocyte-serum free medium supplemented with 5 ng/ml human recombinant epidermal growth factor and 0.05 mg/ml bovine pituitary extract. […] A total of 1-5 mg RNA was reverse-transcribed with oligo dT primer (Sigma) and the M-MulV reverse transcriptase (Fermentas GMBH, St. Leon-Rot, Germany). cDNA (1.5%) was analyzed by real-time PCR in triplicate using a Platinum SYBR Green qPCR SuperMix-UDG (Invitrogen, Paisly, UK) in a Rotorgene detection system (Corbett Research, Cambridge, UK) and normalized to the housekeeping gene hypoxanthine-guanine-phosphoribosyl-transferase (HPRT). […] The DNA was recovered with the Genelute PCR clean-up kit (Sigma) and analyzed by real-time PCR. […]\n(§2) FIG. 2 concerns how EZH2 is recruited to the MSMB gene and causes trimethylation of H3K27. […] The enrichment on MSMB is expressed as a %±s.e. of the control value (n=3-4). […]"}, "[4]": {"test_system": "PPP1R8", "test": "Quantitative RT-PCR of the housekeeping gene PPP1R8 transcript in PC-3 cells", "settings": "siRNA transfection 48 hours", "procedure": "FIG. 2 concerns how EZH2 is recruited to the MSMB gene and causes trimethylation of H3K27. (a) ChIP assays were performed in PC-3 cells using rabbit antibodies against a synthetic peptide of human EZH2 (E. Viré et al. (2006), Nature 439:871-874), trimethylated H3K27 (Upstate), trimethylated H3K9 (Upstate) and control IgGs. […] (b) Immunoblotting (upper panel) and quantitative RT-PCR analysis (lower panel) of PC-3 cell lysates, obtained after transfection with either a control siRNA (Ctr), that is, a scrambled version of a siRNA duplex for the housekeeping gene PPP1R8 ([…] (SEQ ID NO:71), Invitrogen) or an EZH2 siRNA (KD; […] (SEQ ID NO:72), Dharmacon, Chicago, Ill., USA). The PC-3 cells were plated at 1.2×10^6 cells in a 10 cm plate. At 24 hours after plating, the cells were transfected with 300 nM of siRNA duplex using Lipofectamine 2000 (Invitrogen). At 48 hours after transfection, the cells were harvested. SIPP1 served as a loading control for the immunoblotting and ACTIN was used as control for normalization in the quantitative RT-PCR. […] The immunoprecipitated DNA was analyzed by quantitative PCR using primers specific for the MSMB gene (FIG. 1, Panel b). The enrichment on MSMB is expressed as a %±s.e. of the control value (n=3-4). […]"}, "[5]": {"test_system": "H3K27 trimethylation of the MSMB gene", "test": "ChIP with anti-H3K27me3 antibodies on the MSMB gene in PC-3 cells", "settings": "48 hours after siRNA transfection", "procedure": "as §1, §2"}, "[6]": {"test_system": "EZH2 association with the MSMB gene", "test": "ChIP with anti-EZH2 antibodies on the MSMB gene in PC-3 cells", "settings": "48 hours, loss only evident in intron 1 (primer sets 3 and 4)", "procedure": "as §1, §2"}},
  "data": [
    {"compound": "Nc1ncn([C@@H]2O[C@H](CO)[C@@H](O)[C@H]2O)c(=O)n1", "note": "[50-azacytidine]", "values": [
      {"measurement": "reactivation of the MSMB gene", "setting": "[1]", "value": "reactivated"},
      {"measurement": "methylation of the CpG island in the promoter region (upstream CpG island) of the MSMB gene", "setting": "[2]", "value": "decreased"},
      {"measurement": "methylation of the CpG island in the promoter region (upstream CpG island) of the MSMB gene", "setting": "[2]; listed as 5′ azacytidine", "value": "decreased methylation"}
    ]},
    {"compound": "CC(/C=C/C(=O)NO)=C\\[C@@H](C)C(=O)c1ccc(N(C)C)cc1", "note": "[TSA, trichostatin A]", "values": [
      {"measurement": "expression level of EZH2", "setting": "[3]; TSA 50 ng/ml for nine hours", "value": "did not affect"},
      {"measurement": "increase of the MSMB transcript level", "setting": "[1]; TSA 50 ng/ml for nine hours, relative to control condition", "value": "six"}
    ]},
    {"compound": "AAGACUCUGAAUGCAGUUGCU (SEQ ID NO:72) [EZH2 siRNA]", "values": [
      {"measurement": "knockdown of the EZH2 transcript", "setting": "[3]; siRNA transfection 48 hours", "value": "about 70%"},
      {"measurement": "increase in the expression of MSMB", "setting": "[1]; siRNA transfection 48 hours, relative to control siRNA", "value": "three"},
      {"measurement": "transcript level of control housekeeping gene PPP1R8", "setting": "[4]", "value": "not affected"},
      {"measurement": "H3K27 trimethylation of the MSMB gene in intron 1 (ChIP)", "setting": "[5]", "value": "loss of H3K27 trimethylation"},
      {"measurement": "EZH2 associated with the MSMB gene (ChIP)", "setting": "[6]", "value": "less EZH2 was associated"}
    ]}
  ]
}
